Results reported in patent publication EP3504969B1, “COMPOSITION FOR CONTROLLING FUNGAL INFECTION CAUSED BYNOSEMA CERANAE” (Universidad De Chile, priority 2015, dated 2017).

Key:
[1] = tested on: Nosema ceranae; assay: Confirmation efficacy test (Marchámalo): spore reduction in infected bees, days 5, 6 and 7; type: in vivo, Apis mellifera; details: day 7; CD14 daily dose 4 µg/bee; fumagillin 240 µg/bee; p = 0.0001
Method: The AEselec in the previous paragraph (selected for its higher efficacy and higher yield) was assayed to confirm its activity against nosemosis using standardized tests in the Pathology Laboratory of the Centro Agrario de Marchámalo, Spain. Consequently, 3 groups of treatments were used, comprising 3 cages each and 35 bees/cage, born in laboratory, which, after a waiting period of 7 days, were infected with a load of 5 × 10^4 spores per bee. Later, a waiting period of 5 days passed to begin the application of the treatment in the ad libitum feeding. (Higes, 2007; Higes et al., 2010): • 1. Group without infection, negative control (Nl) • 2. Group infected with Nosema spp. spores, untreated positive control to which only 50% sucrose syrup with a 2% L-promoter (IST) shall be given, • 3. Group infected with Nosema spp. spores treated with peumo AE (ICT).
Spores. […] Both environmental variables were monitored through the installation of an environmental thermohygrometer. […]
Figure 6. Effectiveness of CD14 indicated as a percentage of spore reduction on days 5, 6 and 7 days of treatment at a daily dose of CD14, of 4µg/bee and 20 µg/bee of the majority of the evaluated monoterpenes. […]

[2] = tested on: Nosema ceranae; details: laboratory studies; result in words; cited from earlier work

In the case of `CO[C@@H]1[C@H](OC(=O)/C=C/C=C/C=C/C=C/C(=O)O)CC[C@]2(CO2)[C@H]1[C@@]1(C)O[C@@H]1CC=C(C)C` [fumagillin], the “inhibited the growth of N. ceranae spores” value [1] is reported as “about 80%”.
In the case of `Oc1ccc(C=Cc2cc(O)cc(O)c2)cc1` [resveratrol], the “reducing the spore load of Nosema ceranae” value [2] is given as “significant effects”.
In the case of `Cc1ccc(C(C)C)c(O)c1` [thymol], the “reducing the spore load of Nosema ceranae” value [2] is given as “significant effects”.
